Data taken from patent US9695155B2, “Herbicidal substituted pyrimidinyloxy benzene compounds” (E. I. DU PONT DE NEMOURS AND COMPANY, priority 2013, dated 2017).

What was measured:
wild buckwheat = assay: Test D postemergence; format: in vivo, Polygonum convolvulus; details: Fallopia convolvulus, post-emergence, Postemergence, scale 0 to 100 (0 no effect, 100 complete control), read-out: Plant response rating, Buckwheat, Wild
Description: (§1) Seeds of plant species selected from bluegrass (annual bluegrass, Poa annua), blackgrass (Alopecurus myosuroides), canarygrass (littleseed canarygrass, Phalaris minor), chickweed (common chickweed, Stellaria media), galium (catchweed bedstraw, Galium aparine), bromegrass, downy (downy bromegrass, Bromus tectorum), field poppy (Papaver rhoeas), field violet (Viola arvensis), green foxtail (Setaria viridis), deadnettle (henbit deadnettle, Lamium amplexicaule), Italian ryegrass (Lolium multiflorum), kochia (Kochia scoparia), lambsquarters (Chenopodium album), oilseed rape (Brassica napus), pigweed (Amaranthus retroflexus), chamomile (scentless chamomile, Matricaria inodora), Russian thistle (Salsola kali), speedwell (bird's-eye speedwell, Veronica persica), spring barley (Hordeum vulgare), spring wheat (Triticum aestivum), wild buckwheat (Polygonum convolvulus), wild mustard (Sinapis arvensis), wild oat (Avena fatua), wild radish (Raphanus raphanistrum), windgrass (Apera spica-venti), winter barley (Hordeum vulgare), and winter wheat (Triticum aestivum) were planted into a silt loam soil and treated preemergence with test chemicals formulated in a non-phytotoxic solvent mixture which included a surfactant.
(§2) At the same time, these species were planted in pots containing Redi-Earth® planting medium (Scotts Company, 14111 Scottslawn Road, Marysville, Ohio 43041) comprising spaghnum peat moss, vermiculite, wetting agent and starter nutrients and treated with postemergence applications of the test chemicals formulated in the same manner. Plants ranged in height from 2 to 18 cm (1- to 4-leaf stage). Treated plants and controls were maintained in a controlled growth environment for 7 to 21 days after which time all species were compared to controls and visually evaluated. Plant response ratings, summarized in Table D, are based on a scale of 0 to 100 where 0 is no effect and 100 is complete control. A dash (-) response means no test result.

chamomile = assay: Test D postemergence; format: in vivo, Matricaria inodora; details: Tripleurospermum inodorum, post-emergence, scale 0 to 100 (0 no effect, 100 complete control), read-out: Plant response rating, Chamomile
Description: as §1, §2

canarygrass = assay: Test D preemergence; format: in vivo, Phalaris minor; details: Phalaris minor, pre-emergence, scale 0-100, read-out: Plant response rating, Canarygrass
Summary of the method: (§3)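 Greenhouse herbicide screen. Sowing into silt loam for preemergence application; foliar application to 2–18 cm seedlings in potting mix for postemergence. 0–100 visual control rating after 7–21 d.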

windgrass [1] = assay: Test D preemergence; format: in vivo, Apera spica-venti; details: Apera spica-venti, pre-emergence
Description: as §1, §2

chickweed = assay: Test D preemergence; format: in vivo, Stellaria media; details: Stellaria media, pre-emergence, scale 0-100, read-out: Plant response rating, Chickweed
Description: as §1, §2

windgrass [2] = assay: Test D postemergence; format: in vivo, Apera spica-venti; details: Apera spica-venti, post-emergence, scale 0 to 100 (0 no effect, 100 complete control), read-out: Plant response rating, Windgrass
Description: as §1, §2

blackgrass = assay: Test D postemergence; format: in vivo, Alopecurus myosuroides; details: Alopecurus myosuroides, post-emergence, Postemergence, scale 0 to 100 (0 no effect, 100 complete control), read-out: Plant response rating, Blackgrass
Summary of the method: as §3

Italian ryegrass = assay: Test D preemergence; format: in vivo, Lolium multiflorum; details: Lolium multiflorum, pre-emergence
Summary of the method: as §3

green foxtail = assay: Test D postemergence; format: in vivo, Setaria viridis; details: Setaria viridis, post-emergence, scale 0 to 100 (0 no effect, 100 complete control), read-out: Plant response rating, Foxtail, Green
Summary of the method: as §3

pigweed = assay: Test D preemergence; format: in vivo, Amaranthus retroflexus; details: Amaranthus retroflexus, pre-emergence
Description: as §1, §2

speedwell = assay: Test D preemergence; format: in vivo, Veronica persica; details: Veronica persica, pre-emergence
Summary of the method: as §3

lambsquarters = assay: Test D preemergence; format: in vivo, Chenopodium album; details: Chenopodium album, pre-emergence, scale 0-100, read-out: Plant response rating, Lambsquarters
Description: as §1, §2

wild mustard = assay: Test D preemergence; format: in vivo, Sinapis arvensis; details: Brassica, pre-emergence, scale 0-100, read-out: Plant response rating, Mustard, Wild
Description: as §1, §2

wild radish = assay: Test D postemergence; format: in vivo, Raphanus raphanistrum; details: Raphanus raphanistrum, post-emergence, scale 0 to 100 (0 no effect, 100 complete control), read-out: Plant response rating, Radish, Wild
Description: as §1, §2

N#Cc1cccc(Oc2ncc(Cl)cn2)c1-n1cc(Br)cn1 [Compound 52, 2-(4-bromo-1H-pyrazol-1-yl)-3-[(5-chloro-2-pyrimidinyl)oxy]benzonitrile]
35%: pest or weed control at 125 g/ha (canarygrass; 125 g ai/ha)
65%: pest or weed control at 250 g/ha (blackgrass; 250 g ai/ha) | pest or weed control at 31 g/ha (wild radish; 31 g ai/ha)
5%: pest or weed control at 125 g/ha (Italian ryegrass; 125 g ai/ha, scale 0-100, read-out: Plant response rating, Ryegrass, Italian)
50%: pest or weed control at 31 g/ha (windgrass [1]; 31 g ai/ha, scale 0 (no effect) to 100 (complete control), read-out: Plant response rating, Windgrass) | pest or weed control at 250 g/ha (Italian ryegrass; 250 g ai/ha, scale 0-100, read-out: Plant response rating, Ryegrass, Italian)
70%: pest or weed control at 62 g/ha (windgrass [1]; 62 g ai/ha, scale 0-100, read-out: Plant response rating, Windgrass) | pest or weed control at 62 g/ha (wild radish; 62 g ai/ha)
75%: pest or weed control at 250 g/ha (green foxtail; 250 g ai/ha)
25%: pest or weed control at 125 g/ha (windgrass [2]; 125 g ai/ha)
95%: pest or weed control at 62 g/ha (wild buckwheat; 62 g ai/ha)
15%: pest or weed control at 62 g/ha (chamomile; 62 g ai/ha) | pest or weed control at 250 g/ha (chamomile; 250 g ai/ha) | pest or weed control at 31 g/ha (windgrass [2]; 31 g ai/ha) | pest or weed control at 31 g/ha (green foxtail; 31 g ai/ha)
90%: pest or weed control at 125 g/ha (wild mustard; 125 g ai/ha) | pest or weed control at 250 g/ha (wild radish; 250 g ai/ha)
0%: pest or weed control at 31 g/ha (canarygrass; 31 g ai/ha) | pest or weed control at 62 g/ha (canarygrass; 62 g ai/ha) | pest or weed control at 31 g/ha (Italian ryegrass; 31 g ai/ha, scale 0 (no effect) to 100 (complete control), read-out: Plant response rating, Ryegrass, Italian) | pest or weed control at 62 g/ha (Italian ryegrass; 62 g ai/ha, scale 0-100, read-out: Plant response rating, Ryegrass, Italian)
20%: pest or weed control at 125 g/ha (chamomile; 125 g ai/ha) | pest or weed control at 62 g/ha (windgrass [2]; 62 g ai/ha) | pest or weed control at 62 g/ha (green foxtail; 62 g ai/ha) | pest or weed control at 31 g/ha (wild mustard; 31 g ai/ha)
30%: pest or weed control at 62 g/ha (blackgrass; 62 g ai/ha) | pest or weed control at 31 g/ha (blackgrass; 31 g ai/ha)
10%: pest or weed control at 31 g/ha (chamomile; 31 g ai/ha)
100%: pest or weed control at 125 g/ha (wild buckwheat; 125 g ai/ha) | pest or weed control at 250 g/ha (wild buckwheat; 250 g ai/ha) | pest or weed control at 125 g/ha (windgrass [1]; 125 g ai/ha, scale 0-100, read-out: Plant response rating, Windgrass) | pest or weed control at 250 g/ha (windgrass [1]; 250 g ai/ha, scale 0-100, read-out: Plant response rating, Windgrass) | pest or weed control at 31 g/ha (chickweed; 31 g ai/ha) | pest or weed control at 62 g/ha (chickweed; 62 g ai/ha) | pest or weed control at 125 g/ha (chickweed; 125 g ai/ha) | pest or weed control at 250 g/ha (chickweed; 250 g ai/ha) | pest or weed control at 31 g/ha (pigweed; 31 g ai/ha, scale 0 (no effect) to 100 (complete control), read-out: Plant response rating, Pigweed) | pest or weed control at 62 g/ha (pigweed; 62 g ai/ha, scale 0-100, read-out: Plant response rating, Pigweed) | pest or weed control at 125 g/ha (pigweed; 125 g ai/ha, scale 0-100, read-out: Plant response rating, Pigweed) | pest or weed control at 250 g/ha (pigweed; 250 g ai/ha, scale 0-100, read-out: Plant response rating, Pigweed) | pest or weed control at 31 g/ha (speedwell; 31 g ai/ha, scale 0 (no effect) to 100 (complete control), read-out: Plant response rating, Speedwell) | pest or weed control at 62 g/ha (speedwell; 62 g ai/ha, scale 0-100, read-out: Plant response rating, Speedwell) | pest or weed control at 125 g/ha (speedwell; 125 g ai/ha, scale 0-100, read-out: Plant response rating, Speedwell) | pest or weed control at 250 g/ha (speedwell; 250 g ai/ha, scale 0-100, read-out: Plant response rating, Speedwell) | pest or weed control at 62 g/ha (lambsquarters; 62 g ai/ha) | pest or weed control at 125 g/ha (lambsquarters; 125 g ai/ha) | pest or weed control at 250 g/ha (lambsquarters; 250 g ai/ha) | pest or weed control at 250 g/ha (wild mustard; 250 g ai/ha)
80%: pest or weed control at 31 g/ha (wild buckwheat; 31 g ai/ha) | pest or weed control at 31 g/ha (lambsquarters; 31 g ai/ha) | pest or weed control at 125 g/ha (wild radish; 125 g ai/ha)
55%: pest or weed control at 250 g/ha (canarygrass; 250 g ai/ha) | pest or weed control at 62 g/ha (wild mustard; 62 g ai/ha)
40%: pest or weed control at 250 g/ha (windgrass [2]; 250 g ai/ha) | pest or weed control at 125 g/ha (blackgrass; 125 g ai/ha) | pest or weed control at 125 g/ha (green foxtail; 125 g ai/ha)
